From publication PMC3576842 (Cancer discovery, 2012)
“Also recorded” adds a separate entry of the source.

Columns and labels:
[1] = human, in vivo; cited from earlier work
PC-9 cells = assay: High-throughput tumor cell line screening / cell viability assay; type: cell-based, human; conditions: for effect on growth: even at high concentrations
HCC827 cells = assay: as above; type: cell-based, human
[2] = tested on: EGFR delE746_A750 mutant lines (PC-9, HCC827, HCC4006); assay: Cell viability assay; type: cell-based, human; conditions: read-out: IC50 cell viability; 72 hr; 3 NSCLC lines with EGFR delE746_A750
[3] = tested on: NCI-H1975 cells (EGFR L858R/T790M); assay: Cell viability assay; type: cell-based, human; conditions: read-out: IC50 cell viability; 72 hr; L858R/T790M mutant line
[4] = tested on: PC-9 cells (EGFR del E746_A750); assay: EGFR signaling and apoptosis immunoblotting in PC-9 cells; type: cell-based, human
[5] = tested on: HCC827 cells (EGFR del E746_A750); assay: EGFR signaling and apoptosis immunoblotting in HCC827 cells; type: cell-based, human
recombinant EGFR T790M = recombinant EGFR T790M (Homo sapiens, UniProt P00533, T790M); assay: EGFR autophosphorylation assay; type: biochemical; conditions: for inhibition of EGFR T790M autophosphorylation: ATP, 15 min; for concentrations as low as which inhibit EGFR T790M autophosphorylation: EGFR T790M mutants
[6] = molecular target: recombinant EGFR L858R/T790M (Homo sapiens, UniProt P00533, L858R/T790M); assay: EGFR autophosphorylation assay; type: biochemical; conditions: ATP, 15 min
[7] = molecular target: EGFR L858R/T790M in NR6 cells (Homo sapiens, UniProt P00533, L858R/T790M); assay: Ligand-induced; type: cell-based; conditions: 16 hr, TGF-α 15 min
[8] = molecular target: wild-type EGFR in NR6 cells (Homo sapiens, UniProt P00533); assay: Ligand-induced; type: cell-based; conditions: for inhibition of ligand-induced EGFR phosphorylation: NR6 wild-type EGFR, TGF-α
[9] = molecular target: EGFR del E746_A750/T790M in erlotinib-resistant PC-9 cells (Homo sapiens, UniProt P00533, DEL746-750/T790M); assay: Drug wash-out assay; type: cell-based
[10] = tested on: NCI-H1975 tumor xenografts (EGFR L858R/T790M); assay: NCI-H1975 xenograft study; type: in vivo, Balb/c nude mice
[11] = tested on: lung adenocarcinomas driven by EGFR L858R/T790M; assay: Genetically engineered NSCLC model; type: in vivo, mice
in vivo = conditions: athymic nude, mouse, plasma, oral, 100 mg/kg
[12] = PKC412 225 mg/d for 28 days, solid tumor tissues; cited from earlier work
[13] = tested on: PC-9/ER xenografts (EGFR del E746_A750/T790M); assay: PC-9/ER xenograft study; conditions: for tumor growth: daily oral gavage for 21 days, PKC412 100 mg/kg, WZ4002 25 mg/kg
[14] = molecular target: recombinant EGFR wild-type (Homo sapiens, UniProt P00533); assay: EGFR autophosphorylation assay; type: biochemical
[15] = molecular target: EGFR del E746_A750/T790M in NR6 cells (Homo sapiens, UniProt P00533, DEL746-750/T790M); assay: Ligand-induced; type: cell-based; conditions: 16 hr, TGF-α 15 min
PC-9/ER cells = assay: Anti-proliferative response of erlotinib-resistant PC-9 clone; conditions: 10 μM erlotinib
[16] = 1 μM, 72 hr, strong sensitivity defined as greater than 70% growth suppression

CO[C@@H]1[C@H](N(C)C(=O)c2ccccc2)C[C@H]2O[C@]1(C)n1c3ccccc3c3c4c(c5c6ccccc6n2c5c31)C(=O)N[C@H]4O [CGP52421]
plasma concentration of metabolite [1]: 20000 to 25000 nM

Cn1c2ccccc2c2c3c(c4c5ccccc5n(CCC#N)c4c21)CNC3=O [Gö6976]
growth inhibition in cell line screen (PC-9 cells; [16]): strongly growth inhibited | growth inhibition in cell line screen (HCC827 cells; [16]): strongly growth inhibited | IC50 [2]: 100 to 200 nM | IC50 [3]: ~800 nM | apoptosis (PARP cleavage) ([4]; PC-9): promotes apoptosis | suppression of EGFR signaling ([4]; PC-9, 1 μM): suppressed EGFR signaling as efficiently as erlotinib | apoptosis (PARP cleavage) ([5]; HCC827): promotes apoptosis | suppression of EGFR signaling ([5]; HCC827, 1 μM): suppressed EGFR signaling as efficiently as erlotinib

CO[C@@H]1[C@H](N(C)C(=O)c2ccccc2)C[C@H]2O[C@]1(C)n1c3ccccc3c3c4c(c5c6ccccc6n2c5c31)C(=O)NC4 [PKC412]
inhibition of EGFR T790M autophosphorylation (recombinant EGFR T790M): potently inhibit | concentrations as low as which inhibit EGFR T790M autophosphorylation (recombinant EGFR T790M): 3 to 30 nM | inhibition of EGFR L858R/T790M autophosphorylation [6]: potently inhibit | inhibition of ligand-induced EGFR phosphorylation [7]: similarly potent ability to inhibit | inhibition of ligand-induced EGFR phosphorylation [8]: not significantly inhibited | less activity against wild-type EGFR in drug-treated cells than irreversible EGFR inhibitors ([8]; PKC412 versus irreversible EGFR inhibitors): 500 fold | nature of inhibition (recovery of pEGFR after wash-out) [9]: reversible | EGFR signaling in tumors after the last dosing ([10]; 4 hours after the last dosing): effective suppression of EGFR signaling | suppression of phospho-EGFR and phospho-AKT in tumors ([10]; daily for 3 days, PKC412 100 or 200 mg/kg, gefitinib 100 mg/kg): Significant suppression | body weight loss ([10]; daily oral 100 mg/kg): no significant body weight loss | tumor growth suppression compared to control-treated animals ([10]; day 12, daily oral PKC412 100 mg/kg): 50% | weight loss ([11]; 4 weeks of PKC412 treatment): No significant weight loss | tumor growth ([11]; 4 weeks of treatment): growth inhibited for the first two weeks of treatment | phosphorylation of EGFR L858R/T790M in tumors ([11]; treated for 5 days): significant decrease in phosphorylation | Cmax (in vivo): 2910 nM | concentration at 24 h (in vivo): 659 nM | tissue concentration (median) [12]: 593 nM | EGFR signaling in tumors after the last dosing ([13]; Day 21, 4 hours after the last dosing): effective suppression of EGFR signaling | body weight loss ([13]; daily oral 100 mg/kg, 21 days): no significant body weight loss | tumor growth [13]: tumors began to regress; also recorded: significant tumor regression

C=CC(=O)Nc1cccc(Oc2nc(Nc3ccc(N4CCN(C)CC4)cc3OC)ncc2Cl)c1 [WZ4002]
inhibition of wild-type EGFR autophosphorylation ([14]; ATP, 15 min): ineffective | concentrations with detectable inhibition of wild-type EGFR ([14]; autophosphorylation): above 1 micromolar | inhibition of EGFR T790M autophosphorylation (recombinant EGFR T790M): potent suppression | concentrations as low as which inhibit EGFR T790M autophosphorylation (recombinant EGFR T790M): 10 nM | inhibition of EGFR L858R/T790M autophosphorylation [6]: potent suppression | inhibition of ligand-induced EGFR phosphorylation [7]: similarly potent ability to inhibit | inhibition of ligand-induced EGFR phosphorylation [15]: most potent inhibitor | inhibition of ligand-induced EGFR phosphorylation [8]: modestly affected | tumor growth [13]: efficiently inhibited

CN(C)CCCn1cc(C2=C(c3c[nH]c4ccccc34)C(=O)NC2=O)c2ccccc21 [bis-indolylmaleimide I]
effect on growth (PC-9 cells): failed to detectably affect growth | effect on growth (HCC827 cells; even at high concentrations): failed to detectably affect growth

C#Cc1cccc(Nc2ncnc3cc(OCCOC)c(OCCOC)cc23)c1 [erlotinib]
anti-proliferative response (PC-9/ER cells): no anti-proliferative response

CN1CCN(c2nc(C3=C(c4c[nH]c5ccccc45)C(=O)NC3=O)c3ccccc3n2)CC1 [sotrastaurin]
effect on growth (PC-9 cells): failed to detectably affect growth
